Test results as given in US20050019746A1, “Apoptosis-related kinase/GPCRs” (EiRx Therapeutics Limited, priority 2003, published 2005).

Assays:
Format in all cases: cell-based, human
HCT15 cells [1] = experiment: 10-14 day Clonagenicity Assay (MTT), HCT15; settings: independent experiment n = 1, dilution point of maximum toxicity
Excerpt: (§1) The Clonagenicity Assay represents a Cell Viability Screen that allows assessment of a cytotoxic insult at a variety of seed densities of cancer cell lines over an extended period of logarithmic growth, such that the definitive effect of the test substance can be accurately quantified. In this instance, the ‘cytotoxic insult’ to be tested involves the transfection of siRNA Oligomers to knockdown the expression of novel target Kinases and GPCRs as outlined previously. Cell number is quantified 10-14 days post siRNA transfection by MTT conversion as described in detail in Example 6.
(§2) The Clonagenicity Assay is optimised for each cell line examined with respect to seed number. The seed number varies for each cell line and accounts for the differences in cell size, growth rate and sensitivity to transfection-induced toxicity for each cell line pursued. Cells lines given as models for this example include HCT15, MCF7, A549, SKOV3, DU145, U251, PC3, A498 and HeLa. The siRNA oligo to Survivin serves as a positive control for toxicity in this assay and the missense control oligomer acts as a negative control as described in detail in Examples 5 and 6. The c-Raf, BCL2 and PI3K siRNA oligomers serve as additional controls as previously mentioned. The Clonagenicity assay is performed as outlined below.
(§3) Cells are seeded into a 96-well plate as described below and allowed to adhere overnight at 37° C. in a humidified atmosphere containing 5% CO2 in air. Wells are seeded with an appropriate cell number (cell line dependent) in Column 1 of the 96 well plates and this cell suspension is diluted 1 in 2 across the 96 well plates from Column 1 through to 6 (represented on the x-axis in results). Cells are next transfected with siRNA Oligomers, at a concentration of 2 μg/ml, against the genes of interest. Transfections continue for 4 hrs after which the transfection solution is removed and cells are refed with fresh medium and allow to incubate overnight. An additional media change@24 hrs post transfection is made to minimise toxicity of the transfection reagent. Cells are subsequently incubated for a 10-14 Day period post transfection at a 37° C. incubation as described above. Medium is renewed weekly following which MTT quantification is performed as described in Example 5.
(§4) To be considered cytotoxic, the siRNA Oligo against the gene target must induce a decreased viability in a cell line across at least 2 seed densities in the clonagenicity assay, such that a significant difference between the target gene and MS is observed i.e. no crossing of the Standard Error bars is detected. The average percentage viability, relative to missense, is recorded for the dilution point at which Maximum Toxicity is induced is recorded in Table 13.
(§5) Table 13 Clonagenicity Assay—This table gives the average percentage survival of the indicated cell lines relative to the missense in a clonagenicity assay, over 3 independent experiments. As an internal reference, the known survival gene ‘Survivin’, BCL2, c-Raf and PI3KR1 was also targeted by siRNA. When no Cytotoxic response is detected ‘-’ is recorded.

DU145 cells = experiment: 10-14 day Clonagenicity Assay (MTT), DU145; settings: for percentage survival relative to the missense, n = 1: independent experiment n = 1, dilution point of maximum toxicity; for percentage survival relative to the missense, n = 2: independent experiment n = 2, dilution point of maximum toxicity; for percentage survival relative to the missense, n = 3: independent experiment n = 3, dilution point of maximum toxicity
Excerpt: as §1, §2, §3, §4, §5

SKOV3 cells = experiment: 10-14 day Clonagenicity Assay (MTT), SKOV3; settings: for percentage survival relative to the missense, n = 1: independent experiment n = 1, dilution point of maximum toxicity; for percentage survival relative to the missense, n = 3: independent experiment n = 3, dilution point of maximum toxicity
Excerpt: as §1, §2, §3, §4, §5

U251 cells = experiment: 10-14 day Clonagenicity Assay (MTT), U251; settings: for percentage survival relative to the missense, n = 1 / percentage survival relative to the missense, n = 3 / percentage survival relative to the missense, n = 2: U251, clonagenicity assay, dilution point of maximum toxicity; for percentage survival relative to the missense, n = 1: independent experiment n = 1; for percentage survival relative to the missense, n = 3: independent experiment n = 3; for percentage survival relative to the missense, n = 2: independent experiment n = 2; for viability/cytotoxicity in the Clonagenicity Assay: U251, 10-14 days post transfection, MTT, FIG. 35
Excerpt: as §1, §2, §3
Note seed density decreases from 3.5 to 0.1×10^3 cells on the x-axis and the y-axis represents cell number as quantified by MTT conversion, 10-14 days post transfection. This decrease is substantially greater that with the apoptosis gene, Survivin. […] Note seed density decreases from 3.5 to 0.1×10^3 cells on the x-axis and the y-axis represents cell number as quantified by MTT conversion, 10-14 days post transfection.
as §4, §5

A498 cells = experiment: 10-14 day Clonagenicity Assay (MTT), A498; settings: for percentage survival relative to the missense, n = 1: independent experiment n = 1, dilution point of maximum toxicity; for percentage survival relative to the missense, n = 3: independent experiment n = 3, dilution point of maximum toxicity
Excerpt: as §1, §2, §3, §4, §5

PC3 cells = experiment: 10-14 day Clonagenicity Assay (MTT), PC3; settings: independent experiment n = 3, dilution point of maximum toxicity
Excerpt: as §1, §2, §3, §4, §5

A549 cells [2] = experiment: 10-14 day Clonagenicity Assay (MTT), A549; settings: for percentage survival relative to the missense, n = 1: independent experiment n = 1, dilution point of maximum toxicity; for percentage survival relative to the missense, n = 3: independent experiment n = 3, dilution point of maximum toxicity
Excerpt: as §1, §2, §3, §4, §5

A549 cells [3] = experiment: Anchorage Independence/Soft Agar Assay, A549; set-up: PERCENTAGE SURVIVAL RELATIVE TO MS, A549, n = 2: tested at 2 µg; settings: soft agar
Protocol: (§6) The Anchorage Independence/Soft Agar Assay allows assessment of the influence of modulation of gene expression on clonal tumouroid formation by observing and quantifying tumouroid morphology and colony number over an extended period of logarithmic growth thereby ascertaining any cell death is induced.
(§7) Cells are seeded into a 6-well plate and allowed to adhere overnight at 37° C. in a humidified atmosphere containing 5% CO2 in air. Cells are next transfected with siRNA Oligomers, at a concentration of 2 μg, against the genes of interest. Transfections continued for 4 hrs after which the transfection solution is removed and cells are refed with fresh medium and allowed incubate overnight. Transfected cells are next harvested for seeding into soft agar assay as described below. Cells are seeded at 5×10^4 cells per well of a 6 well plate and incubated over a 12/14-Day period whilst proliferating in a 0.05% Agar/Medium cell suspension at 37° C. in a humidified atmosphere containing 5% CO2 in air. Colonies formed are subsequently stained with Crystal Violet, their morphology is assessed and colonies formed are enumerated at a 4× magnification.
(§8) The cytotoxic effect of each gene is determined by a reduction in colony number compared to our MS control, but any influence on the morphology of the colony is also noted.
(§9) Examples of genes with a cytotoxic effect on knockdown as detected by the soft agar assay are outlined in Table 14. Table 14 gives the percentage survival of the indicated cell lines post transfection with siRNA oligomers to target genes relative to that of the missense in an anchorage independent assay. As an internal reference, the known survival gene Survivin was also targeted by siRNA. This table illustrates the magnitude of cytotoxicity induced by the knockdown of each target gene compared to the MS control i.e. the number of colonies formed are stained with Crystal violet and enumerated visually as discussed.

MCF7 cells = experiment: Anchorage Independence/Soft Agar Assay, MCF7; set-up: PERCENTAGE SURVIVAL RELATIVE TO MS, MCF7, n = 2: tested at 2 µg; settings: soft agar
Protocol: as §6, §7, §8, §9

HCT15 cells [4] = experiment: Anchorage Independence/Soft Agar Assay, HCT15; set-up: PERCENTAGE SURVIVAL RELATIVE TO MS, HCT15, n = 2: tested at 2 µg; PERCENTAGE SURVIVAL RELATIVE TO MS, HCT15, n = 1: tested at 2 µg siRNA; settings: soft agar
Protocol: as §6, §7, §8, §9

[5] = independent experiment n = 2, dilution point of maximum toxicity

Substance	percentage survival relative to the missense, n = 3 (DU145 cells) [%]	percentage survival relative to the missense, n = 1 (SKOV3 cells) [%]	percentage survival relative to the missense, n = 3 (SKOV3 cells) [%]	percentage survival relative to the missense, n = 1 (U251 cells) [%]	percentage survival relative to the missense, n = 3 (U251 cells) [%]	percentage survival relative to the missense, n = 1 (A498 cells) [%]	percentage survival relative to the missense, n = 3 (A498 cells) [%]	percentage survival relative to the missense, n = 3 (PC3 cells) [%]	percentage survival relative to the missense, n = 1 (A549 cells [2]) [%]	percentage survival relative to the missense, n = 3 (A549 cells [2]) [%]	percentage survival relative to the missense, n = 2 (U251 cells) [%]	other results
CNK/PRK (sense UCGUAGUGCUUGUACUUACtt; antisense GUAAGUACAAGCACUACGAtt; as printed in the source, key not given here)	16.8	13.8	50.1	48.8	44.5	9.5	7.2	–	–	–	–	percentage survival relative to the missense, n = 1 (HCT15 cells [1]): 75.9%; percentage survival relative to the missense, n = 1 (DU145 cells): 46.1%; percentage survival relative to the missense, n = 2 (DU145 cells): 39%
CNK/PRK SEQ 2 (sense CAGAAAGACUGUGCACUACTT; antisense GUAGUGCACAGUCUUUCUGTT; chemistry not given here)	–	65.7	72.2	35.2	57.5	20	8.2	28.3	62.5	25.6	–	–
MKNK SEQ 2 (sense AUUGCAAGGAGGUUCCAUCTT; antisense GAUGGAACCUCCUUGCAAUTT; chemistry not given here)	53.6	–	47.6	–	52.1	56.2	6	39.5	–	54.8	43.6	–
MPSK1 SEQ 2 (sense GCCGACAUGCAUCGCCUCUTT; antisense AGAGGCGAUGCAUGUCGGCTT; chemistry not given here)	63.4	–	73.8	–	59.3	39.3	8.9	16.7	39.1	26.1	–	–
PSKH1 SEQ 2 (sense UUGGCCGAGGCAGCUUCAGTT; antisense CUGAAGCUGCCUCGGCCAATT; chemistry not given here)	35.2	42.3	45.1	52.1	34.1	36	6	21.8	52.3	28	50.7	–
siRNA FLJ13351: sense CACCAAUUAGUUCAAAGCUtt, antisense AGCUUUGAACUAAUUGGUGtt (sense CACCAAUUAGUUCAAAGCUTT; antisense AGCUUUGAACUAAUUGGUGTT; chemistry not given here)	–	–	–	–	–	–	–	–	–	–	–	viability/cytotoxicity in the Clonagenicity Assay (U251 cells): does not induce cytotoxicity
siRNA PI3KR1: control siRNA, sense AUGAUCGAUGUGCACGUUUtt, antisense AAACGUGCACAUCGAUCAUtt (sense AUGAUCGAUGUGCACGUUUTT; antisense AAACGUGCACAUCGAUCAUTT; chemistry not given here) [reference compound]	44.8	55.3	41.7	56.3	21.4	–	10	–	–	38.3	–	–
siRNA STK6: sense GCCGGUUCAGAAUCAGAAGtt, antisense CUUCUGAUUCUGAACCGGCtt (sense GCCGGUUCAGAAUCAGAAGTT; antisense CUUCUGAUUCUGAACCGGCTT; chemistry not given here)	34.8	10.2	37.2	12.8	25.8	18.5	32.6	–	56.8	31.6	51.5	percentage survival relative to the missense, n = 1 (HCT15 cells [1]): 69.6%; percentage survival relative to the missense, n = 1 (DU145 cells): 48.1%; percentage survival relative to the missense, n = 2 (DU145 cells): 45.3%; percentage survival relative to the missense, n = 2 (SKOV3 cells; [5]): 35.3%; viability/cytotoxicity in the Clonagenicity Assay (U251 cells): decreases viability; percentage survival relative to the missense, n = 2 (A549 cells [2]; [5]): 69.6%
siRNA TLK2B: sense GAUGGCGUGUAGAGAUAAGtt, antisense CUUAUCUCUACACGCCAUCtt (chain 1 GAUGGCGUGUAGAGAUAAGTT; chain 2 CUUAUCUCUACACGCCAUCTT; chemistry not given here)	–	–	–	–	–	–	–	–	–	–	–	PERCENTAGE SURVIVAL RELATIVE TO MS, A549, n = 1 (A549 cells [3]; experiment n = 1): 65.8%; PERCENTAGE SURVIVAL RELATIVE TO MS, A549, n = 2 (A549 cells [3]; experiment n = 2): 36.7%; PERCENTAGE SURVIVAL RELATIVE TO MS, MCF7, n = 1 (MCF7 cells; experiment n = 1): 83.7%; PERCENTAGE SURVIVAL RELATIVE TO MS, MCF7, n = 2 (MCF7 cells; experiment n = 2): 99.5%; PERCENTAGE SURVIVAL RELATIVE TO MS, HCT15, n = 1 (HCT15 cells [4]; experiment n = 1): 67.3%; PERCENTAGE SURVIVAL RELATIVE TO MS, HCT15, n = 2 (HCT15 cells [4]; experiment n = 2): 115.6%
